Measurements from article PMC10871122, “Synthesis and In Vitro Evaluation as Potential Anticancer and Antioxidant Agents of Diphenylamine-Pyrrolidin-2-one-Hydrazone Derivatives” (International Journal of Molecular Sciences, 2023).

Columns and labels:
[1] = Ferric reducing antioxidant power (FRAP) assay; details: for FRAP reducing power (Fe^2+): absorbance at 593 nm; for reducing power activity compared to the control antioxidant: vs protocatechuic acid
Text: The ferric reducing antioxidant power (FRAP) assay was used to evaluate the antioxidant potential of new compounds 2–17. Antioxidant assays are based on determining reduction power reactions (e.g., reduction Fe^3+ to Fe^2+) or scavenging free radicals (DPPH, ABTS). The FRAP assay is based on the method of single electron transfer (SET), measuring the reduction in the complex of ferric ions (Fe^3+)-ligand to the blue ferrous complex (Fe^2+). This method uses 2,4,6-tripyridyl-s-triazine (TPTZ) as the linking ligand to the iron. The antioxidant activity of the synthesized compounds was compared with that of the well-known antioxidant protocatechuic acid. […] PCA is a building block for pharmaceuticals and is widely used to produce many medicinal products such as veratridine (sodium channel inactivation inhibitor), erlotinib (antineoplastic), Picatin II (treatment of hepatitis B), itopride hydrochloride (gastrointestinal motility drug). PCA can also cause the induction of apoptosis of human leukemia cells. Moreover, the antioxidant activity of PCA is based on the reduction in free radical formation via the up-regulation of genes encoding enzymes with neutralizing activities.
Antioxidant activity was determined as an increase in absorbance at 593 nm, and the results were expressed as of Fe^2+ μmol/L and in relation to antioxidants, and protocatechuic acid, as positive control. The FRAP reagent contained 2.5 mL of 10 mM TPTZ solution in 40 mM HCl as well as 2.5 mL of FeCl3 (20 mM) and 25 mL of acetate buffer (0.3 M, pH = 3.6). Then, 100 μL of analyzed compounds (20 mM) were mixed with 3 mL of the FRAP reagent. The absorbance of the reaction mixture was measured spectrophotometrically at 593 nm using a UV-1280 UV-VIS spectrophotometer (Shimadzu Corporation, Kyoto, Japan). To compose the calibration curve, five concentrations of FeSO4·7H2O (5, 10, 15, 20, 25 μM) were used, and the absorbance was measured as a sample solution.

[2] = system: human melanoma IGR39 cell line; assay: MTT cell viability assay, melanoma IGR39; format: cell-based; details: 100 µM, 72 h, MTT
Text: (§1) The human malignant melanoma cell line IGR39, human triple-negative breast cancer MDA-MB-231, and human pancreatic carcinoma cell line Panc-1 were obtained from the American Type Culture Collection (ATCC, Manassas, VA, USA). Human foreskin fibroblasts (HF) CRL-4001 were originally obtained from ATCC and kindly provided by Prof. Helder Santos (University of Helsinki, Finland). Primary prostate carcinoma PPC-1 cell line was kindly provided by Prof. Tambet Teesalu (University of Tartu, Estonia). All cell lines were cultured in Dulbecco’s Modified Eagle’s GlutaMAX medium (Gibco (Carlsbad, CA, USA)), supplemented with 10,000 U/mL penicillin, 10 mg/mL streptomycin (Gibco), and 10% fetal bovine serum (Gibco). Cell cultures were grown at 37 °C in a humidified atmosphere containing 5% CO2. They were used until the passage of 20.
(§2) The effect of synthesized compounds on cell viability was studied using 3-(4,5-dimethylthiazol-2-yl)-2,5-diphenyltetrazolium bromide (MTT; Sigma-Aldrich Co., St Louis, MO, USA) assay, as described elsewhere. To summarize, the cells were seeded in triplicates in 96-well Corning plates (IGR39, MDA-MB-231, Panc-1 and PPC1: 4 × 10^3 cells/well; HF: 5 × 10^3 cells/well). The cells were treated with 100 μM of tested compounds after 24 h of incubation. After 72 h, the MTT reagent was added and the formazan crystals that had formed were dissolved in DMSO (Sigma-Aldrich Co., St. Louis, MO, USA). The absorbance was determined with a multidetection microplate reader at 570 and 630 nm.
(§3) The compound serial dilutions ranging from 50 µM to 1.56 µM were introduced to the cells. The Hill equation was used to calculate the EC50 value, or the concentration of a compound that results in a 50% reduction in the metabolic activity of cells.

[3] = system: tested cancer cell lines (IGR39, PPC-1, MDA-MB-231, Panc-1); assay: MTT cell viability assay, statements on the tested cancer cell lines together; format: cell-based, human; details: for inhibition of cancer cell viability: 100 µM, 72 h, MTT; for selectivity against cancer cells: after determination of the dose-effect correlation
Procedure: as §2, §3

[4] = system: human foreskin fibroblasts (HF) CRL-4001; assay: MTT cell viability assay, fibroblasts; format: cell-based; details: 100 µM, 72 h
Text: as §1, §2, §3

[5] = system: prostate carcinoma PPC-1 cell line; assay: MTT cell viability assay, prostate carcinoma PPC-1; format: cell-based, human; details: 100 µM, 72 h, MTT
Text: as §1, §2, §3

Row | melting point [°C] | Compound | FRAP reducing power (Fe^2+) [1] [µmol/L] | reducing power activity compared to the control antioxidant [1] | effect on cell viability compared among the cell lines [2] | inhibition of cancer cell viability [3] | effect on fibroblasts compared to cancer cell lines [4] | effect on cell viability compared among the cell lines [5] | antioxidant activity (FRAP) relative to protocatechuic acid [1] [times] | selectivity against cancer cells [3]
1 | 240 to 241 | O=C(NN=Cc1ccc(Br)s1)C1CC(=O)N(c2ccc(Nc3ccccc3)cc2)C1 (stereo not shown) [Compound 12, N′-((5-bromothiophen-2-yl)methylene)-5-oxo-1-(4-(phenylamino)phenyl)pyrrolidine-3-carbohydrazide] | – | higher than those of known antioxidants used as the controls | – | – | affected fibroblasts more than the tested cancer cell lines | most active against the prostate carcinoma cell line | – | –
2 | 122 to 123 | O=C(NN=Cc1ccccc1)C1CC(=O)N(c2ccc(Nc3ccccc3)cc2)C1 (stereo not shown) [Compound 2, N′-benzylidene-5-oxo-1-(4-(phenylamino)phenyl)pyrrolidine-3-carbohydrazide] | – | higher than those of known antioxidants used as the controls | strongest effect on melanoma cells | – | affected fibroblasts more than the tested cancer cell lines | – | – | –
3 | 209 to 210 | O=C(NN=Cc1ccc(Cl)cc1)C1CC(=O)N(c2ccc(Nc3ccccc3)cc2)C1 (stereo not shown) [Compound 4, N′-(4-chlorobenzylidene)-5-oxo-1-(4-(phenylamino)phenyl)pyrrolidine-3-carbohydrazide] | – | – | – | – | – | most active against the prostate carcinoma cell line | – | nonselective against cancer cells
4 | 234 to 235 | O=C(NN=Cc1ccc[nH]1)C1CC(=O)N(c2ccc(Nc3ccccc3)cc2)C1 (stereo not shown) [Compound 11, N′-((1H-pyrrol-2-yl)methylene)-5-oxo-1-(4-(phenylamino)phenyl)pyrrolidine-3-carbohydrazide] | – | – | – | less than 20% | – | most active against the prostate carcinoma cell line | – | –

Second part, the compound before the results:

Row | Compound | melting point [°C] | FRAP reducing power (Fe^2+) [1] [µmol/L] | reducing power activity compared to the control antioxidant [1] | effect on cell viability compared among the cell lines [2] | inhibition of cancer cell viability [3] | effect on fibroblasts compared to cancer cell lines [4] | effect on cell viability compared among the cell lines [5] | antioxidant activity (FRAP) relative to protocatechuic acid [1] [times] | selectivity against cancer cells [3]
5 | CC(=NNC(=O)C1CC(=O)N(c2ccc(Nc3ccccc3)cc2)C1)c1ccccc1 (stereo not shown) [Compound 15, 5-Oxo-1-(4-(phenylamino)phenyl)-N′-(1-phenylethylidene)pyrrolidine-3-carbohydrazide] | 225 to 226 | 123.05 | higher than those of known antioxidants used as the controls | strongest effect on melanoma cells | less than 20% | – | – | – | –
6 | O=C(NN=Cc1ccccc1[N+](=O)[O-])C1CC(=O)N(c2ccc(Nc3ccccc3)cc2)C1 (stereo not shown) [Compound 9, N′-(2-nitrobenzylidene)-5-oxo-1-(4-(phenylamino)phenyl)pyrrolidine-3-carbohydrazide] | 192 to 193 | 118.32 | higher than those of known antioxidants used as the controls | strongest effect on melanoma cells | less than 20% | – | – | – | –
7 | CSc1ccc(C=NNC(=O)C2CC(=O)N(c3ccc(Nc4ccccc4)cc3)C2)cc1 (stereo not shown) [Compound 10, N′-(4-(methylthio)benzylidene)-5-oxo-1-(4-(phenylamino)phenyl)pyrrolidine-3-carbohydrazide] | 193 to 194 | – | – | strongest effect on melanoma cells | – | affected fibroblasts more than the tested cancer cell lines | – | – | –
8 | CC(=NNC(=O)C1CC(=O)N(c2ccc(Nc3ccccc3)cc2)C1)c1cccc(N)c1 (stereo not shown) [Compound 17, N′-(1-(3-aminophenyl)ethylidene)-5-oxo-1-(4-(phenylamino)phenyl)pyrrolidine-3-carbohydrazide] | 239 to 240 | 129.28 | higher than those of known antioxidants used as the controls | – | – | affected fibroblasts more than the tested cancer cell lines | most active against the prostate carcinoma cell line | – | –
9 | CC(=NNC(=O)C1CC(=O)N(c2ccc(Nc3ccccc3)cc2)C1)c1ccc(N)cc1 (stereo not shown) [Compound 16, N′-(1-(4-aminophenyl)ethylidene)-5-oxo-1-(4-(phenylamino)phenyl)pyrrolidine-3-carbohydrazide] | 230 to 231 | 132.14 | higher than those of known antioxidants used as the controls | strongest effect on melanoma cells | less than 20% | – | – | 1.2 | –
10 | CN(C)c1ccc(C=NNC(=O)C2CC(=O)N(c3ccc(Nc4ccccc4)cc3)C2)cc1 (stereo not shown) [Compound 7, N′-(4-(dimethylamino)benzylidene)-5-oxo-1-(4-(phenylamino)phenyl)pyrrolidine-3-carbohydrazide] | 218 to 219 | – | higher than those of known antioxidants used as the controls | – | – | affected fibroblasts more than the tested cancer cell lines | – | – | –
11 | CCN(CC)c1ccc(C=NNC(=O)C2CC(=O)N(c3ccc(Nc4ccccc4)cc3)C2)c(O)c1 (stereo not shown) [Compound 8, N′-(4-(diethylamino)-2-hydroxybenzylidene)-5-oxo-1-(4-(phenylamino)phenyl)pyrrolidine-3-carbohydrazide] | 239 to 240 | 120.24 | higher than those of known antioxidants used as the controls | strongest effect on melanoma cells | – | affected fibroblasts more than the tested cancer cell lines | – | – | –
12 | O=C(NN=Cc1ccc(Br)cc1)C1CC(=O)N(c2ccc(Nc3ccccc3)cc2)C1 (stereo not shown) [Compound 3, N′-(4-bromobenzylidene)-5-oxo-1-(4-(phenylamino)phenyl)pyrrolidine-3-carbohydrazide] | 198 to 199 | 120.08 | higher than those of known antioxidants used as the controls | strongest effect on melanoma cells | – | – | – | – | nonselective against cancer cells
13 | O=C(O)c1ccc(O)c(O)c1 [protocatechuic acid, 3,4-dihydroxybenzoic acid, reference compound] | – | 109.05 | – | – | – | – | – | – | –
